The values below come from US12600732B2, “Bifunctional compounds for degrading BTK via ubiquitin proteosome pathway” (NURIX THERAPEUTICS, INC., priority 2019, dated 2026).

Test [1] addresses BTK (Homo sapiens, UniProt Q06187). The experiment in a line: Cellular BTK degradation assay (Total BTK HTRF) in TMD8 cells. The class given is cell-based. The arrangement: endogenous in cells; host or cells: TMD8. Particulars: treatment time 24 h. Here is the method: Cellular BTK Degradation Assay
In Vitro Cellular Screening to Determine Potency as Measured by DC50 Values after Four Hour Incubation
BTK levels were determined using Cisbio Total-BTK HTRF (Homologous Time-Resolved Fluorescence) kit (63ADK064PEG) according to the manufacturer's protocol. Briefly, cells were incubated in 1× supplied lysis buffer for 30 minutes. In an opaque white low volume 96-well plate (Cisbio, 66PL96005), cell lysate was combined with two different specific BTK antibodies, one conjugated with Eu^3+-Cryptate FRET donor and one conjugated with d2 FRET acceptor. Assay controls include wells containing cell lysate with only the Eu^3+-Cryptate FRET donor antibody and wells containing both HTRF antibodies and lysis buffer without cells or control lysate provided by Cisbio. HTRF ratio was calculated as (acceptor signal at 665 nm/donor signal at 620 nm)×10^4. Background HTRF levels were determined from the control well containing the donor, but no acceptor, antibody. Background HTRF levels were subtracted from all samples. Readouts were reported as HTRF levels relative to HTRF levels of DMSO-treated cells. Four-parameter non-linear regressions were performed in GraphPad Prism 7.02 to obtain DC50 values.
Cellular BTK degradation was measured as above for four hours in TMD8 cells for two diastereomers of compound 130. DC50 and EC50 values are the concentration at which the response is halfway between the top and bottom of the fitted non-linear regression curve.
The present example evaluates whether potency of BTK CTMs shifts with longer timepoints. DC50 values are typically calculated with a 4-hour timepoint.
On the technique in general: Time-resolved FRET reads energy transfer from a long-lived donor to a nearby acceptor.

The test system of test [2] is BTK. In words: Non-human primate (cyno) DRF PD, BTK remaining in B cells. The class given is in vivo. Particulars: blood, 24 h after previous dose. Here is the method:
This example evaluates potency and tolerability of BTK CTMs following multiple, consecutive days of dosing and examines potency of compounds for BTK and Aiolos degradation. The data in the table below is from a study in which animals were dosed daily with the designated oral dose. Analysis for BTK and Aiolos levels was performed twenty-four hours following the previous dose.

The target of another test is T1, TEC kinase (Homo sapiens, UniProt P42680).
T1 construct: endogenous in cells; host or cells: K562
T1 sequence (P42680 1-631): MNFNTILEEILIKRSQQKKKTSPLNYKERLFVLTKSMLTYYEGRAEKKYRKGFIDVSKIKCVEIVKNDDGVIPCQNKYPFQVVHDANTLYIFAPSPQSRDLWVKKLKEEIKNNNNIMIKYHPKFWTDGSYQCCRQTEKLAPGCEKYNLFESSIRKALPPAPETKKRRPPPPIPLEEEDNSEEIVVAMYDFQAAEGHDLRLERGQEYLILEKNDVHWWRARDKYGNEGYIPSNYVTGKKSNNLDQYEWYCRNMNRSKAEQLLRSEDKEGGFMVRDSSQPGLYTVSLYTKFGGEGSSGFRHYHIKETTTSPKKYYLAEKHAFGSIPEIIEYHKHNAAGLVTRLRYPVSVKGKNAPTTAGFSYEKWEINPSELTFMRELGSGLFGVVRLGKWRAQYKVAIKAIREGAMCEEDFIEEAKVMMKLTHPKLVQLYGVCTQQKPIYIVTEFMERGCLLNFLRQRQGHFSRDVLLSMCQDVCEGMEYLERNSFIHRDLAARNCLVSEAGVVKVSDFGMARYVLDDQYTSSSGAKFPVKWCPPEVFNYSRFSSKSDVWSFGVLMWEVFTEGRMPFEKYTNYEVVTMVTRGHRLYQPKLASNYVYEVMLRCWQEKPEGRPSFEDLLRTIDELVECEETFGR
In words: TEC kinase degradation in K562 cells (western blot). The class given is cell-based. Particulars: FIGS. 13A-13D; for effects on TEC kinase levels: four hours, 0.026-2000 nM, western blot. Here is the method: To determine effects of BTK CTMs on TEC levels in cells, K562 cells were treated for four hours with CTMs at concentrations between 0.026-2000 nM. TEC levels in cell lysate was assessed by western blot.
Background: Immunoblotting shows a protein as a band on a membrane.

The subject of test [3] is BTK. The experiment in a line: PD data from cyno (BTK degradation). The class given is in vivo. Particulars: blood. The text has this: In this example, compounds were profiled for activity in non-mouse species.
Test [4] deals with T2, BTK (Mus musculus, UniProt P35991).
T2 construct: from tissue; host or cells: mouse blood B cells / splenocytes (CD-1 or BALB/c)
T2 sequence (P35991 whole entry): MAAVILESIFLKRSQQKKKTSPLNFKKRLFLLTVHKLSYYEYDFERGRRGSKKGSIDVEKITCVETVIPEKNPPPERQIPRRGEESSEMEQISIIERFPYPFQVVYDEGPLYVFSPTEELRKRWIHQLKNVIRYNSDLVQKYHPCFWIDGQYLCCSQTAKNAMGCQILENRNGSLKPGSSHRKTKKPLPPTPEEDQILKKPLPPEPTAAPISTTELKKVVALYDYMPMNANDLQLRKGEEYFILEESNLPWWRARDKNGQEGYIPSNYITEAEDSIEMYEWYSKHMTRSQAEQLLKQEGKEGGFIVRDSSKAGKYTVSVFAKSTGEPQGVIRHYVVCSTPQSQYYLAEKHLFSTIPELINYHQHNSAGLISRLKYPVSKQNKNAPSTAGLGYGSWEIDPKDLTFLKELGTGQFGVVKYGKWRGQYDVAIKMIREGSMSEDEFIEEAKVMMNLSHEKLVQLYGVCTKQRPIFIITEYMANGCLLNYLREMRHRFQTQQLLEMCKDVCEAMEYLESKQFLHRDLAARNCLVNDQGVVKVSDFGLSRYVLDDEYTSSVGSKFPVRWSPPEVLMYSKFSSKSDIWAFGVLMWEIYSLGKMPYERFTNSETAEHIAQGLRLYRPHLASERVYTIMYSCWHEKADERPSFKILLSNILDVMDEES
The experiment in a line: Mouse DRF PD, BTK remaining in B cells. Particulars: blood, 24 h after previous dose. It counts as in vivo. Here is the method: A method of determining the pharmacodynamic profile of BTK degraders was performed by dosing either CD-1 or BALB/c mice with CTM. The CTM was prepared in a suitable formulation and was administered via oral gavage (PO) at a suitable dose level and frequency as informed by prior pharmacokinetic and tolerability studies. Following administration of CTM, BTK levels in blood or splenocytes are measured using flow cytometry or HTRF. For assessment of BTK levels via flow cytometry, either whole blood or splenocytes were first treated with ACK RBC lysis buffer to facilitate lysing of red blood cells. Remaining cells were then stained with fluorophore-conjugated antibodies against CD45, TCR beta and CD45R (B220). Cell pellets were washed with 1×PBS, fixed, and permeabilized for twenty-four hours with Foxp3/Transcription Factor Fixation/Permeabilization Kit. Cells were then stained intracellularly with unconjugated BTK antibody and detected with a fluorophore-conjugated secondary antibody. Stained cells were run on an Attune N×T Acoustic Focusing Flow Cytometer (Thermo-Fisher A29004), and data was analyzed using FlowJo (v10.5.3) and GraphPad Prism (v7.00) software. Lymphocytes were gated for B cells defined as CD45+ TCR beta−B220+ and T cells as CD45+ TCR beta+B220−. The BTK geometric mean fluorescence intensity (MFI) was calculated for B and T cells. Percent BTK degradation for each compound-treated sample was calculated using the equation described below: % Degradation=100*(Treated sample B cell BTK MFI-treated sample T cell BTK MFI)/Vehicle B cell BTK MFI-Vehicle T cell BTK MFI)
This example evaluates potency and tolerability of BTK CTMs following multiple, consecutive days of dosing and evaluates potency of compounds for BTK degradation.
The data in the table below is from a study in which animals were dosed daily with the designated oral dose. Analysis for BTK levels was performed twenty-four hours following the previous dose.

Setting [5] is: 10 mg/kg PO daily, 1 day of dosing.
Setting [6] is: 10 mg/kg PO daily, 14 days of dosing.
[7] abbreviates: 30 mg/kg PO daily, 1 day of dosing.
Setting [8] is: 30 mg/kg PO daily, 14 days of dosing.
[9] abbreviates: 100 mg/kg PO daily, 1 day of dosing.
The mark [10] stands for this setting: 100 mg/kg PO daily, 14 days of dosing.
Where [11] appears, read: 300 mg/kg PO daily, 1 day of dosing.
[12] abbreviates: 300 mg/kg PO daily, 14 days of dosing.

Each structure is given as a SMILES string. Several values for one entry are separate records, joined by “and”; a condition that tells them apart may be missing. Identical values can stand only once.

BTK (Homo sapiens, UniProt Q06187), sequence (Q06187 whole entry): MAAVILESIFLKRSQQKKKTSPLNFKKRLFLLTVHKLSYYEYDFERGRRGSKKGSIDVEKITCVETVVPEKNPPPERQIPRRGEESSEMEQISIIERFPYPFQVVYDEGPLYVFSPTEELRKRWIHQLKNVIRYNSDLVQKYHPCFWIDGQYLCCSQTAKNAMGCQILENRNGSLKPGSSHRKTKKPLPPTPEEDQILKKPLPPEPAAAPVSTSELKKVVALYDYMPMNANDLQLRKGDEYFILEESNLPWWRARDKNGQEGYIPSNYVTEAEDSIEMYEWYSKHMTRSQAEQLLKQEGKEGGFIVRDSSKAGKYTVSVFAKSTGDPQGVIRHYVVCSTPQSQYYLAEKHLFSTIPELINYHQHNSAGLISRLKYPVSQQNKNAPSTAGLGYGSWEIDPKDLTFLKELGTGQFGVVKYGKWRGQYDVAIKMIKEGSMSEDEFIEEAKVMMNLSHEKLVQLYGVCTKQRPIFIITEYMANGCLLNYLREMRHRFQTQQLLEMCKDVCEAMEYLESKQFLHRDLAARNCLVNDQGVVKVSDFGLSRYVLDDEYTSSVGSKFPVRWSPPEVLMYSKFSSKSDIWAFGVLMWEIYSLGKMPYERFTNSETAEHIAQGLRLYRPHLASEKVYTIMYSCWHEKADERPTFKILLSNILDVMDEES

For orientation: DC50 means the concentration at which degradation of the target reaches its halfway point. `CN1CCN([C@@H]2CCCN(c3cnc(C(N)=O)c(Nc4ccc(C5CCN(C[C@H]6CCN(c7ccc8c(c7)C(=O)N(C7CCC(=O)NC7=O)C8=O)C6)CC5)cc4)n3)C2)C1=O` (some centres unmarked) [Compound 44] returned a half-maximal degradation concentration (DC50) at BTK [1] of 0.36 nM. In addition, the “% BTK Remaining in B cells” value with BTK [2] (setting [5]) is 35%; in the test with BTK [2] (setting [6]), 16%; in the test on BTK [2] (setting [7]), 31%; in the test with BTK [2] (setting [8]), 10%; with BTK [2] (setting [9]), 14%; in the test on BTK [2] (setting [10]), 6%. The “% BTK Remaining in B cells” value stood at 16% on BTK [4] (setting [7]); 16% at BTK [4] (setting [8]); 10% at BTK [4] (setting [9]); 11% on BTK [4] (setting [10]); 8% at BTK [4] (setting [11]); 10% on BTK [4] (setting [12]). On TEC kinase, the “degradation of BTK compared with TEC” value is “more potent degradation of BTK than TEC”. At TEC kinase, the “effects on TEC kinase levels” value is on record as “mild to moderate effects”. In addition, the “% BTK Remaining” value in the test on BTK [3] (1 mg/kg IV, 2 h) was found to be 6%; in the test with BTK [3] (1 mg/kg IV, 4 h), 6%; in the test with BTK [3] (1 mg/kg IV, 8 h), 7%; in the test on BTK [3] (1 mg/kg IV, 24 h) it was 9%; in the test on BTK [3] (1 mg/kg PO, 2 h) it was 85%; in the test with BTK [3] (1 mg/kg PO, 4 h), 65%. For the same compound, the “% BTK Remaining” value with BTK [3] (1 mg/kg PO, 8 h) is 52%; in the test with BTK [3] (1 mg/kg PO, 24 h) it was 40%; with BTK [3] (10 mg/kg PO, 2 h, 10 mg/kg) it was 59% and 82%; with BTK [3] (10 mg/kg PO, 4 h, 10 mg/kg), 35% and 42%; in the test on BTK [3] (10 mg/kg PO, 8 h, 10 mg/kg) it was 22% and 27%; with BTK [3] (10 mg/kg PO, 24 h, 10 mg/kg), 15% and 29%. The “% BTK Remaining” value with BTK [3] (30 mg/kg PO, 2 h) stood at 83%; with BTK [3] (30 mg/kg PO, 4 h), 47%; in the test on BTK [3] (30 mg/kg PO, 8 h), 22%; with BTK [3] (30 mg/kg PO, 24 h), 17%; in the test on BTK [3] (100 mg/kg PO, 2 h) it was 48%; in the test with BTK [3] (100 mg/kg PO, 4 h), 27%. Moreover, the “% BTK Remaining” value with BTK [3] (100 mg/kg PO, 8 h) is 12%; in the test with BTK [3] (100 mg/kg PO, 24 h), 8%.
On to `CN1CCN([C@H]2CCCN(c3cnc(C(N)=O)c(Nc4ccc(C5CCN(CC6CCN(c7ccc(C(=O)NC8CCC(=O)NC8=O)nc7)CC6)CC5)cc4)n3)C2)C1=O` (some centres unmarked) [Compound 130], for which the “% BTK Remaining in B cells” value came out at 6% in the test with BTK [2] (setting [5]); 5% in the test with BTK [2] (setting [6]); 3% in the test on BTK [2] (setting [7]); 5% in the test on BTK [2] (setting [8]); 4% with BTK [2] (setting [9]); 4% in the test with BTK [2] (setting [10]). In addition, the “% BTK Remaining in B cells” value at BTK [4] (setting [7]) was 11%; on BTK [4] (setting [8]), 6%; on BTK [4] (setting [9]) it was 3%; on BTK [4] (setting [10]), 2%; on BTK [4] (setting [11]), 2%; on BTK [4] (setting [12]), below 1%. In addition, at TEC kinase, the “degradation of BTK compared with TEC” value is reported as “more potent degradation of BTK than TEC”. In addition, the “effects on TEC kinase levels” value at TEC kinase is listed as “mild to moderate effects”. The “% BTK Remaining” value in the test on BTK [3] (1 mg/kg IV, 2 h) is reported as 8%; with BTK [3] (1 mg/kg IV, 4 h), 6%; in the test with BTK [3] (1 mg/kg IV, 8 h) it was 5%; in the test on BTK [3] (1 mg/kg IV, 24 h), 13%; with BTK [3] (10 mg/kg PO, 2 h), 4%; in the test on BTK [3] (10 mg/kg PO, 4 h), below 1%. For the same compound, the “% BTK Remaining” value in the test with BTK [3] (10 mg/kg PO, 8 h) is reported as below 3%; with BTK [3] (10 mg/kg PO, 24 h), below 1%; in the test on BTK [3] (30 mg/kg PO, 2 h), 6%; with BTK [3] (30 mg/kg PO, 4 h), below 1%; in the test with BTK [3] (30 mg/kg PO, 8 h) it was below 1%; in the test with BTK [3] (30 mg/kg PO, 24 h) it was 1%.
On to `CN1CCN([C@@H]2CCCN(c3cnc(C(N)=O)c(Nc4ccc(C5CCN(CC6CCN(c7ccc8c(=O)n(C9CCC(=O)NC9=O)ccc8c7)CC6)CC5)cc4)n3)C2)C1=O` (some centres unmarked) [Compound 72], for which the DC50 on BTK [1] amounted to 0.21 nM. In addition, on TEC kinase, the “degradation of BTK compared with TEC” value is on record as “more potent degradation of BTK than TEC” and the “effects on TEC kinase levels” value was “mild to moderate effects”.
For the compound `CN1CCN([C@@H]2CCCN(c3cnc(C(N)=O)c(Nc4ccc(C5CCN(CC6CCN(c7ccc(-c8nn(C9CCC(=O)NC9=O)c(=O)n8C)cc7)CC6)CC5)cc4)n3)C2)C1=O` (some centres unmarked) [Compound 121], half-maximal degradation at BTK [1] (DC50) was put at 1 nM.
